Results: patent US6602516B1, “Antibiotic/medicated gutta percha point” (priority 2000, dated 2003)

How the values were obtained:
Staphylococcus aureus = test: Naval Dental School antibacterial study of iodoform/gutta percha (FIG. 1); type: cell-based; conditions: tested aerobe
Text: (§1) However, it is not as effective against an oral salivary leakage contamination as determined by the previous leakage and bacterial investigations.
(§2) FIG. 1 is a table illustrating the results from a study at Naval Dental School, Bethesda, Md., the iodoform/gutta percha disclosed in U.S. Pat. No. 5,648,403, issued Jul. 15, 1997.

Lactobacillus = test: as above; type: cell-based
Text: as §1, §2

Streptococcus mutans = test: as above; type: cell-based; conditions: tested aerobe
Text: as §1, §2

Prevotella intermedius = test: as above; type: cell-based
Text: as §1, §2

Actinomyces = test: as above; type: cell-based
Text: as §1, §2

Enterococci faecium = test: as above; type: cell-based; conditions: facultative anaerobe
Text: as §1, §2

Streptococcus sanguis = test: as above; type: cell-based; conditions: tested aerobe
Text: as §1, §2

Escherchi coli = test: as above; type: cell-based; conditions: tested aerobe
Text: as §1, §2

patients = conditions: more than 1,000 patients; cited from earlier work

SMILES | effectiveness against Staphylococcus aureus (Staphylococcus aureus) | effectiveness against Lactobacillus (Lactobacillus) | effectiveness against Streptococcus mutans (Streptococcus mutans) | effectiveness against Prevotella intermedius (Prevotella intermedius) | effectiveness against Actinomyces (Actinomyces) | effectiveness against Enterococci faecium (Enterococci faecium) | effectiveness against Streptococcus sanguis (Streptococcus sanguis) | effectiveness against Escherchi coli (Escherchi coli) | allergic reactions (patients)
IC(I)I [Iodoform, Triiodomethane (Iodoform)] | ineffective | ineffective | ineffective | ineffective | ineffective | ineffective | ineffective | ineffective | 
CN(C)[C@@H]1C(O)=C(C(N)=O)C(=O)[C@@]2(O)C(O)=C3C(=O)c4c(O)cccc4[C@@](C)(O)[C@H]3C[C@@H]12 [tetracycline] |  |  |  |  |  |  |  |  | no allergic reactions
